# Measured values taken from paper PMC5584973, “Characterization of novel bangle lectin from Photorhabdus asymbiotica with dual sugar-binding specificity and its effect on host immunity” (PLoS Pathogens, 2017).
# Like-named read-outs stand apart in the source and are kept apart here.
# Assays:
# [1] = system: human serum; experiment: Antimicrobial activity of human serum against E. coli K12; details: 320 μg protein
# Procedure: Samples of human blood were collected from healthy donors to tubes without anticoagulant and anonymized prior to experiments. The blood was allowed to clot for at least 10 min, centrifuged at 2,000 g, 10 min to remove the clot and the collected serum was used immediately for subsequent analysis. The serum was analysed within two hours after blood collection in all experiments.
# (§1) The antimicrobial activity of human sera and insect haemolymph was measured luminometrically using the bioluminescent Gram-negative bacteria Escherichia coli K12 [59]. We have modified previously published protocol to measure the effect of PHL [60]. […] After treatment, 120 μl of bacteria working solution containing 100,000 E. coli K12 cells in PBS (pH 7.0) was added to the reaction well and the luminescence signal was recorded with a Chameleon V luminometer (Hidex, Finland) in counts per second (CPS). Reaction wells with PHL, BSA or PBS in an 80 μl volume of the same concentrations and pH as above were measured with E. coli K12 in each experiment as viability controls, not affected by human serum nor haemolymph. The luminescence produced by E. coli K12 corresponds to the bacterial viability. The antimicrobial effect of human sera and haemolymph was determined as time elapsed until the luminescence signal decreased under 1000 or 5000 CPS, respectively. […]
# [2] = system: G. mellonella haemolymph; experiment: Antimicrobial activity of insect haemolymph against E. coli K12; design: species or system Galleria mellonella; details: 320 μg protein
# Procedure: (§2) Larvae of the greater wax moth, Galleria mellonella, were reared on an artificial diet at 30 ± 1°C in constant darkness. Haemolymph was collected from the seventh instar larvae by cutting a proleg and pooling the haemolymph into a tube containing phenylthiourea (1 mg/ml in PBS; haemolymph mixed with phenylthiourea in the ratio 9:1 [v/v]) or used directly for the determination of phenoloxidase activity.
# as §1
# [3] = system: whole human blood; experiment: Oxidative burst (ROS production) in human blood; type: cell-based; details: 125 μg protein
# Procedure: ROS production was measured according to previously published work in whole human blood within 15 min of sampling. The fresh human blood (2 μl diluted 40x in HBSS; 0.137 M NaCl, 5.4 mM KCl, 0.44 mM KH2PO4, 0.25 mM Na2HPO4, 4.2 mM NaHCO3, 1.0 mM MgSO4, 1.3 mM CaCl2, 5.55 mM glucose; pH 7.4) was mixed with 25 μl of PHL (125 μg in PBS for all experiments except dose-dependence assay where different dilutions of PHL were used), BSA (125 μg in PBS) or PBS (pH 7.4) and incubated for 10 min at 37°C or room temperature. After incubation, 25 μl of the luminophore (10 mM luminol) and 25 μl of activator zymosan A (2.5 mg/ml in HBSS) was added to activate ROS production in phagocytes. To detect the constitutive production of ROS, zymosan was replaced with the same volume of HBSS. Luminescence was recorded with a Chameleon V luminometer (Hidex, Finland) for two hours at 37°C or room temperature, and the integrals of reactions were compared. Results from experimental treatments (incubation of blood with PHL and BSA) were normalised to the integral of the oxidative response in the respective blood sample with PBS.
# [4] = system: phenoloxidase (PO) in haemolymph of G. mellonella; experiment: Phenoloxidase activity in insect haemolymph; type: biochemical, Galleria mellonella; details: for PHL activation of melanisation in the presence of sugar: 0.2M sugar, PHL 475 μg
# Procedure: as §2
# PO activity was measured according to previously published studies. Haemolymph of G. mellonella (5 μl) was collected directly to 95 μl of PHL (475 μg in PBS for all experiments except dose-dependence assay where different dilutions of PHL were used), PLL (475 μg in PBS), BSA (475 μg in PBS) or PBS (pH 7.4) and incubated for 10 min at room temperature. After incubation, 40 μl of reaction mixture was transported to the microplate well and 160 μl of 3,4-dihydroxy-DL-phenylalanine (3 mg/ml in PBS) was added as substrate. The reaction was allowed to proceed for 30 min, and absorbance was measured in 2-min intervals at 492 nm with a Sunrise reader (Tecan, Switzerland). PO activity was expressed as linear increase in absorbance per minute. For the inhibition assay, PHL was pre-incubated with 0.2M L-Fuc or Me-α-L-Fuc for 10 min at room temperature prior to mixing with haemolymph.
# [5] = target: T1, PHL (Photorhabdus asymbiotica, UniProt C7BLE4); experiment: SPR inhibition of PHL binding to immobilized L-fucoside
# Procedure: (§3) SPR inhibition experiments were performed using the same conditions described above. The PHL lectin (0.25 μM final concentration) was mixed with various concentrations of inhibitors (1M – 0.01 mM) and injected onto the sensor chip. Pure PHL lectin was used as a control (0% inhibition). The response of the lectin bound to the sugar surface at equilibrium was plotted against the concentration of inhibitor in order to determine IC50.
# [6] = system: PHL; experiment: as above; design: species or system Photorhabdus asymbiotica; details: IC50 from SPR inhibition, PLL data ref 21
# Procedure: as §3
# [7] = target: T1, PHL; experiment: Haemagglutination inhibition assay with PHL; type: cell-based; details: for Potency towards L-fucose: haemagglutination inhibition, from MIC; for MIC (minimal inhibitory concentration) of haemagglutination by PHL: microscopy
# Procedure: A haemagglutination inhibition assay was performed to determine the specificity and semi-quantitative affinity of PHL interaction with the saccharides. A wide range of monosaccharides at concentrations from 50 mM to 0.5 mM were used for determining the lowest inhibiting concentration. A 20 μl mixture composed of 5 μl PHL (2mg/ml), 5 μl saccharide, and 10 μl 10% RBCs was prepared (all components of reaction were in PBS buffer). After 10 minutes, the reaction was observed using a Levenhuk microscope.
# [8] = target: T1, PHL; experiment: Isothermal titration calorimetry (ITC); type: binding
# Procedure: (§4) ITC experiments were performed using an ITC200 calorimeter (Malvern, England). Experiments were performed at 25°C in buffer A (300 mM NaCl, 20 mM Tris/HCl, pH 7.5). Carbohydrate ligands were dissolved in the same buffer. Protein in the cell (50 μM) was titrated by consecutive addition (2 μl) of the ligand in the syringe (1.5–50 mM) while stirring at 1000 rpm. Control experiments performed with injections of buffer in the protein solution yielded insignificant signals. Integrated heat effects were analyzed by nonlinear regression using a single-site binding model in Origin 7 (Microcal). The experimental data fitted to a theoretical titration curve brought up stoichiometry (n), association constant Ka, and the enthalpy of binding ΔH. The other thermodynamic parameters such as free energy (ΔG) and […] (ΔS) were calculated from the equation ΔG = ΔH-TΔS = -RTlnKa, where T is the absolute temperature and R is the molar gas constant (8.314 J.mol^-1.K^-1). At least two independent titrations were carried out for each tested ligand.
# [9] = system: PHL; experiment: Isothermal titration calorimetry (ITC); type: binding, Photorhabdus asymbiotica; details: ITC, PLL data ref 21
# Procedure: as §4
# [10] = ITC at 25°C, stoichiometry fixed to 3, read-out: KD (n = 3)
# [11] = ITC at 25°C, stoichiometry fixed to 4, read-out: KD (n = 4)
# T1 sequence (C7BLE4 1-369): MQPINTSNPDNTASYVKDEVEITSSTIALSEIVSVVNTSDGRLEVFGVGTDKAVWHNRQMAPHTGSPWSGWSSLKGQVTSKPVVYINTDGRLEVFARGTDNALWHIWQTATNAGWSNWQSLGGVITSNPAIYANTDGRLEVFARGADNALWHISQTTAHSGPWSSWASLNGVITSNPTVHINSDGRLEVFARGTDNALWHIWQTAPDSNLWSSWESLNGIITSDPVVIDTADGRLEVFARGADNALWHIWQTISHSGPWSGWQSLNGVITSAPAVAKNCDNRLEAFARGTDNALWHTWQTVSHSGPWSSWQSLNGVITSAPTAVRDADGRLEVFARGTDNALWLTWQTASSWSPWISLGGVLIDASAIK
compound,measurement,setting,value
bovine serum albumin [BSA],effect on antimicrobial activity against E. coli K12,[1],not able to block the effect of antimicrobial factors
same,effect on antimicrobial activity against E. coli K12,[2],not able to block the effect of antimicrobial factors
same,ROS production (integral of luminescence),[3]; blood challenged with activator zymosan A,5.3±1.3 x 10^6 CPS*min
same,constitutive ROS production (integral of luminescence),"[3]; whole human blood A/B/O, without activator, 2 hours",26.9±16.9 x 10^3 CPS*min
same,effect on PO activity (melanisation),"[4]; G. mellonella haemolymph, 475 μg for BSA, PLL",did not have any effect
"CO[C@@H]1O[C@@H](C)[C@@H](O)[C@@H](O)[C@@H]1O [Me-α-L-Fuc, Methyl-α-L-fucopyranoside]",IC50,"[5]; SPR, PHL 0.25 μM binding to immobilized L-fucoside, 25°C, read-out: IC50",40 µM
same,fold better inhibition effect for PHL than for PLL,[6],42 fold
same,Potency towards L-fucose,[7],8
same,MIC (minimal inhibitory concentration) of haemagglutination by PHL,[7],390 µM
same,Kd,[8]; [10],260 ± 40 µM
same,Kd,[8]; [11],210 µM
same,binding stoichiometry,"[8]; ITC, fitted",approx. 2.9
same,Kd,"[8]; ITC, stoichiometry not fixed, read-out: equilibrium dissociation constant",270 µM
same,fold higher affinity of PHL than PLL,[9],approx. 4 fold
same,PHL activation of melanisation in the presence of sugar,[4],inhibited
"C[C@H](O)[C@@H](O)[C@@H](O)[C@H](O)C=O [L-Fuc, L-fucose]",IC50,[5],360 µM
same,fold better inhibition effect for PHL than for PLL,[6],15 fold
same,Potency towards L-fucose,[7],1
same,MIC (minimal inhibitory concentration) of haemagglutination by PHL,[7],3125 µM
same,Kd,[8]; [10],1400 ± 30 µM
same,Kd,[8]; [11],1330 ± 40 µM
same,fold higher affinity of PHL than PLL,[9],approx. 4 fold
same,PHL activation of melanisation in the presence of sugar,[4],inhibited
